Experimental data taken from PubChem BioAssay (NCI).
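Five concentrations, 48 hours, 96-well plates. GI50 = concentration required for 50% inhibition of growth. TGI: total growth inhibition.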

Legend:
Test in all cases: NCI tumour cell line growth inhibition, 48 h
LOX IMVI melanoma = system: LOX IMVI melanoma
HOP-92 NSCLC = system: HOP-92 NSCLC
HCT-15 colon = system: HCT-15 colon
DU-145 prostate = system: DU-145 prostate
ACHN renal = system: ACHN renal
NCI-H522 lung = system: NCI-H522 lung
M14 melanoma = system: M14 melanoma
SF-268 CNS = system: SF-268 CNS
T-47D breast = system: T-47D breast
NCI/ADR-RES ovarian = system: NCI/ADR-RES ovarian
U251 CNS = system: U251 CNS
EKVX NSCLC = system: EKVX NSCLC
MDA-MB-435 = system: MDA-MB-435
RXF 393 renal = system: RXF 393 renal
SK-MEL-2 melanoma = system: SK-MEL-2 melanoma
SW-620 colon = system: SW-620 colon
BT-549 breast = system: BT-549 breast
SK-MEL-5 melanoma = system: SK-MEL-5 melanoma
UO-31 renal = system: UO-31 renal
RPMI-8226 leukemia = system: RPMI-8226 leukemia
SNB-19 CNS = system: SNB-19 CNS
UACC-62 melanoma = system: UACC-62 melanoma
COLO 205 colon = system: COLO 205 colon
MDA-MB-231 breast = system: MDA-MB-231 breast
SK-MEL-28 melanoma = system: SK-MEL-28 melanoma
SK-OV-3 ovarian = system: SK-OV-3 ovarian
SF-295 CNS = system: SF-295 CNS
NCI-H460 lung = system: NCI-H460 lung
IGROV1 ovarian = system: IGROV1 ovarian
OVCAR-8 ovarian = system: OVCAR-8 ovarian
K-562 leukemia = system: K-562 leukemia
HS 578T breast = system: HS 578T breast
OVCAR-5 ovarian = system: OVCAR-5 ovarian
786-0 renal = system: 786-0 renal
TK-10 renal = system: TK-10 renal
UACC-257 melanoma = system: UACC-257 melanoma
HL-60(TB) leukemia = system: HL-60(TB) leukemia
PC-3 prostate = system: PC-3 prostate
OVCAR-4 ovarian = system: OVCAR-4 ovarian
HOP-62 NSCLC = system: HOP-62 NSCLC
A549 NSCLC = system: A549 NSCLC
KM12 colon = system: KM12 colon
SR leukemia = system: SR leukemia
CAKI-1 renal = system: CAKI-1 renal
SN12C renal = system: SN12C renal
HCC-2998 colon = system: HCC-2998 colon
SF-539 CNS = system: SF-539 CNS
HCT-116 colon = system: HCT-116 colon
NCI-H23 lung = system: NCI-H23 lung
MCF7 breast = system: MCF7 breast
OVCAR-3 ovarian = system: OVCAR-3 ovarian

## Clc1ccc(Nc2nc3ccccc3c3occc23)cc1
LOX IMVI melanoma
  GI50: 5.49 µM
  TGI: 14.3 µM
HOP-92 NSCLC
  GI50: 6.53 µM
  TGI: 13.2 µM
HCT-15 colon
  GI50: 11.2 µM
  TGI: 34.4 µM
DU-145 prostate
  GI50: 7.01 µM
  TGI: 13.5 µM
ACHN renal
  GI50: 9.16 µM
  TGI: 18.9 µM
NCI-H522 lung
  GI50: 9.83 µM
  TGI: 20.3 µM
M14 melanoma
  GI50: 8.46 µM
  TGI: 16.9 µM
SF-268 CNS
  GI50: 8.09 µM
  TGI: 16.7 µM
T-47D breast
  GI50: 1.52 µM
  TGI: 11.3 µM
NCI/ADR-RES ovarian
  GI50: 8.7 µM
  TGI: 15.6 µM
U251 CNS
  GI50: 8.66 µM
  TGI: 16.2 µM
EKVX NSCLC
  GI50: 8.02 µM
  TGI: 15.9 µM
MDA-MB-435
  GI50: 7.5 µM
  TGI: 14.1 µM
RXF 393 renal
  GI50: 8.4 µM
  TGI: 16.9 µM
SK-MEL-2 melanoma
  GI50: 9.53 µM
  TGI: 21.7 µM
SW-620 colon
  GI50: 8.04 µM
  TGI: 14.8 µM
BT-549 breast
  GI50: 8.28 µM
  TGI: 15.2 µM
SK-MEL-5 melanoma
  GI50: 7.52 µM
  TGI: 14.1 µM
UO-31 renal
  GI50: 7.91 µM
  TGI: 22.6 µM
RPMI-8226 leukemia
  GI50: 11.3 µM
  TGI: 27.4 µM
SNB-19 CNS
  GI50: 8.78 µM
  TGI: 16.2 µM
UACC-62 melanoma
  GI50: 8.1 µM
  TGI: 18.3 µM
COLO 205 colon
  GI50: 6 µM
  TGI: 13 µM
MDA-MB-231 breast
  GI50: 9.1 µM
  TGI: 24.7 µM
SK-MEL-28 melanoma
  GI50: 6.39 µM
  TGI: 14.4 µM
SK-OV-3 ovarian
  GI50: 8.15 µM
  TGI: 16 µM
SF-295 CNS
  GI50: 6.86 µM
  TGI: 13.3 µM
NCI-H460 lung
  GI50: 13 µM
  TGI: 35.2 µM
IGROV1 ovarian
  GI50: 10.2 µM
  TGI: 27.3 µM
OVCAR-8 ovarian
  GI50: 9.2 µM
  TGI: 20.9 µM
K-562 leukemia
  GI50: 13.6 µM
  TGI: > 50 µM
HS 578T breast
  GI50: 6.95 µM
  TGI: 16.3 µM
OVCAR-5 ovarian
  GI50: 9.4 µM
  TGI: 18.4 µM
786-0 renal
  GI50: 8.33 µM
  TGI: 15.1 µM
TK-10 renal
  GI50: 4.99 µM
  TGI: 11 µM
UACC-257 melanoma
  GI50: 10.4 µM
  TGI: 19.2 µM
HL-60(TB) leukemia
  GI50: 24.4 µM
  TGI: > 50 µM
PC-3 prostate
  GI50: 7 µM
  TGI: 13.5 µM
OVCAR-4 ovarian
  GI50: 8.7 µM
  TGI: 19.8 µM
HOP-62 NSCLC
  GI50: 9.19 µM
  TGI: 17.3 µM
A549 NSCLC
  GI50: 8.13 µM
  TGI: 16.8 µM
KM12 colon
  GI50: 6.46 µM
  TGI: 13.8 µM
SR leukemia
  GI50: 23.2 µM
  TGI: > 50 µM
CAKI-1 renal
  GI50: 3.07 µM
  TGI: 10.2 µM
SN12C renal
  GI50: 10.9 µM
  TGI: 22.6 µM
HCC-2998 colon
  GI50: 6.41 µM
  TGI: 12.7 µM
SF-539 CNS
  GI50: 9.62 µM
  TGI: 17.5 µM
HCT-116 colon
  GI50: 8.74 µM
  TGI: 15.7 µM
NCI-H23 lung
  GI50: 8.02 µM
  TGI: 14.9 µM
MCF7 breast
  GI50: 10.9 µM
  TGI: > 50 µM
OVCAR-3 ovarian
  GI50: 5.92 µM
  TGI: 12.1 µM
